Experimental data taken from US6217848A, “Cyanine and indocyanine dye bioconjugates for biomedical applications” (Mallinckrodt Inc., priority 1999, dated 2001).

Columns and labels:
[1] = Blood clearance profile of peptide-dye conjugates monitored at the rat ear; type: in vivo, Sprague-Dawley or Fischer 344 rats; conditions: bolus injection in the lateral tail vein, 0.5 to 2.0 mL
From the text: A laser of appropriate wavelength for excitation of the dye chromophore was directed into one end of a fiber optic bundle and the other end was positioned a few millimeters from the ear of a rat. A second fiber optic bundle was also positioned near the same ear to detect the emitted fluorescent light and the other end was directed into the optics and electronics for data collection. An interference filter (IF) in the collection optics train was used to select emitted fluorescent light of the appropriate wavelength for the dye chromophore.
Sprague-Dawley or Fischer 344 rats were used in these studies. The animals were anesthetized with urethane administered via intraperitoneal injection at a dose of 1.35 g/kg body weight. After the animals had achieved the desired plane of anesthesia, a 21 gauge butterfly with 12" tubing was placed in the lateral tail vein of each animal and flushed with heparinized saline. The animals were placed onto a heating pad and kept warm throughout the entire study. The lobe of the left ear was affixed to a glass microscope slide to reduce movement and vibration.
Incident laser light delivered from the fiber optic was centered on the affixed ear. Data acquisition was then initiated, and a background reading of fluorescence was obtained prior to administration of the test agent. For Cytates 1 or 2, the peptide-dye conjugate was administered to the animal through a bolus injection in the lateral tail vein, typically of 0.5 to 2.0 mL.
This procedure was repeated with several dye-peptide conjugates in normal and tumored rats and representative profiles are shown in FIGS. 6 to 10.

[2] = test system: Rat Pancreatic Acinar Carcinoma (CA20948); test: Imaging of individual organs removed from rat with CA20948 tumor; type: in vivo; conditions: about 24 hours after injection (FIG. 5)
Procedure: FIG. 5 is an image of individual organs taken from a rat with pancreatic acinar carcinoma (CA20948) about 24 hours after injection with Cytate 1.
(§1) A non-invasive in vivo fluorescence imaging apparatus was employed to assess the efficacy of contrast agents developed for tumor detection in animal models. A LaserMax Inc. laser diode of nominal wavelength 780 nm and nominal power of 40 mW was used. The detector was a Princeton Instruments model RTE/CCD-1317-K/2 CCD camera with a Rodenstock 10 mm F2 lens (stock #542.032.002.20) attached. An 830 nm interference […] (CVI Laser Corp., part # F10-830-4-2) was mounted in front of the CCD input lens such that only emitted fluorescent light from the contrast agent was imaged. Typically, an image of the animal was taken pre-injection of contrast agent. This image was subsequently subtracted (pixel by pixel) from the post injection images. However, the background subtraction was […] done once the animal had been removed from the sample area and returned at a later time for images taken several hours post injection.
Individual organs were removed and imaged. […] This correlates very nicely with radiolabeled Octreotate in the same model system (see de Jong et al., 1998).

[3] = test system: Rat Pancreatic Acinar Carcinoma (CA20948); test: In vivo fluorescence imaging of rat pancreatic acinar carcinoma (CA20948) expressing the SST-2 receptor; set-up: species or system Lewis rat; conditions: for fluorescence in tumored rats at 45 minutes: 45 minutes post injection (FIGS. 2A-B)
From the text: as §1
(§2) The animals were anesthetized with rat cocktail (xylazine; ketamine; acepromazine 1.5: 1.5: 0.5) at 0.8 mL/kg via intramuscular injection. The area of the tumor (left flank) was shaved to expose tumor and surrounding surface area. A 21 gauge butterfly equipped with a stopcock and two syringes containing heparinized saline was placed into the later tail vein of the rat. Patency of the vein was checked prior to administration of the ICG via the butterfly apparatus. Each animal received 500 μL of a 0.42 mg/mL solution of ICG in water.
The imaging apparatus and the procedure used are described in Example 9. Rat pancreatic acinar carcinoma expressing the SST-2 receptor (CA20948) were induced by solid implant technique in the left flank area and palpable masses were detected 9 days post implant.
The imaging apparatus and the procedure used are described in Example 9 except that each animal received 500 μL of a 1.0 mg/mL solution of Cytate 1 solution of 25% dimethylsulfoxide in water. Rat pancreatic acinar carcinoma expressing the SST-2 receptor (CA20948) were induced by solid implant technique in the left flank area and palpable masses were detected 24 days post implant. Images were obtained at various times post injection. […] FIGS. 2A-B show a comparison of the uptake of ICG and Cytate 1 at 45 minutes in rats with the CA20948 tumor cell line.
Cytate 1 was evaluated in the CA20948 Lewis rat model. […] As a control, the organs were imaged again (FIG. 4A) and the image was compared with that of the same tissues in the uninjected rat (FIG. 4B).

[4] = test system: pancreatic ductal adenocarcinoma (DSL 6A); test: In vivo fluorescence imaging of pancreatic ductal adenocarcinoma (DSL 6A) in rats; set-up: species or system male Lewis rats
From the text: as §1
DSL 6A tumors were induced in male Lewis rats in the left flank area by the introduction of material from a solid (donor) implant and the tumors were palpable in approximately 14 days.
The animals were anesthetized with rat cocktail (xylazine; ketamine; acepromazine 1.5: 1.5: 0.5) at 0.8 mL/kg via intramuscular injection. The area of the tumor (left flank) was shaved to expose tumor and surrounding surface area. […]

[5] = test system: Prostatic Carcinoma (R3327-H); test: In vivo fluorescence imaging of prostatic carcinoma (R3327-H) in rats; set-up: species or system young male Copenhagen rats; conditions: Dunning R3327-H
From the text: as §1
as §2, with “Each animal received 500 μL of a 0.42 mg/mL solution of ICG in water.” left out

[6] = test system: somatostatin (SST-2) receptors; conditions: cited from earlier work

C[C@@H](O)[C@H](NC(=O)[C@@H]1CSSC[C@H](NC(=O)[C@@H](Cc2ccccc2)NC(=O)CC[N+]2=C(/C=C/C=C/C=C/C=C3/N(CCC(=O)O)c4ccc5ccccc5c4C3(C)C)C(C)(C)c3c2ccc2ccccc32)C(=O)N[C@@H](Cc2ccc(O)cc2)C(=O)N[C@H](Cc2c[nH]c3ccccc23)C(=O)N[C@@H](CCCCN)C(=O)N[C@@H]([C@@H](C)O)C(=O)N1)C(=O)O [Cytate 1, monoOctreotate-Bisethylcarboxymethylindocyanine dye]
decay of fluorescence signal (blood clearance) [1]: decayed as a function of time as the conjugate cleared from the bloodstream
fluorescence signal after bolus injection (rise) [1]: rapidly increased to a peak value
uptake in heart, muscle, spleen and liver [2]: significantly less uptake
uptake in pancreas, adrenals and tumor tissue [2]: High uptake
uptake into the tumor ([3]; CA20948, 2 minutes post injection, 500 μL of 1.0 mg/mL in 25% dimethylsulfoxide in water): Uptake into the tumor was seen at 2 minutes
fluorescence in tumored rats at 45 minutes ([3]; CA20948): still quite intense
localization in the tumor ([3]; CA20948, 90 minutes post injection (FIG. 3A)): strong localization
specificity for the SST-2 receptors ([3]; CA20948, 19 hours post injection): showing specificity of this agent for the SST-2 receptors
tumor visualization ([3]; CA20948, 19 hours post injection (FIG. 3B)): tumor visualization was easily observed
duration of dye fluorescence in the tumor ([3]; CA20948, post-injection): remained intense in the tumor for several hours post-injection

C[C@@H](O)[C@H](NC(=O)[C@@H]1CSSC[C@H](NC(=O)[C@@H](Cc2ccccc2)NC(=O)CCN2C(=CC=CC=CC=CC3=[N+](CCC(=O)N[C@H](Cc4ccccc4)C(=O)N[C@H]4CSSC[C@@H](C(=O)N[C@H](C(=O)O)[C@@H](C)O)NC(=O)[C@H]([C@@H](C)O)NC(=O)[C@H](CCCCN)NC(=O)[C@@H](Cc5c[nH]c6ccccc56)NC(=O)[C@H](Cc5ccc(O)cc5)NC4=O)c4ccc5ccccc5c4C3(C)C)C(C)(C)c3c2ccc2ccccc32)C(=O)N[C@@H](Cc2ccc(O)cc2)C(=O)N[C@H](Cc2c[nH]c3ccccc23)C(=O)N[C@@H](CCCCN)C(=O)N[C@@H]([C@@H](C)O)C(=O)N1)C(=O)O [Cytate 2, bisOctreotate-Bisethylcarboxymethylindocyanine dye]
decay of fluorescence signal (blood clearance) [1]: decayed as a function of time as the conjugate cleared from the bloodstream
fluorescence signal after bolus injection (rise) [1]: rapidly increased to a peak value

CC1(C)C(/C=C/C=C/C=C/C=C2\N(CCCCS(=O)(=O)O)c3ccc4ccccc4c3C2(C)C)=[N+](CCCCS(=O)(=O)[O-])c2ccc3ccccc3c21 [ICG, indocyanine green]
reasonable images obtained [4]: reasonable images were obtained
perfusion of the agent into the tumor ([4]; 500 μL of 0.42 mg/mL in water): slow perfusion of the agent over time into the tumor
perfusion of the agent into the tumor [5]: slow perfusion of the agent over time into the tumor
reasonable images obtained [5]: reasonable images were obtained
perfusion of the agent into the tumor ([3]; CA20948, 30 minutes post injection): only a slight but transient perfusion that was absent after only 30 minutes post injection
fluorescence in tumored rats at 45 minutes ([3]; CA20948): mostly cleared
non-specific localization ([3]; CA20948 compared to the other two tumor lines): no non-specific localization

C[C@@H](O)[C@H](NC(=O)[C@@H]1CSSC[C@H](NC(=O)[C@H](N)Cc2ccccc2)C(=O)N[C@@H](Cc2ccc(O)cc2)C(=O)N[C@H](Cc2c[nH]c3ccccc23)C(=O)N[C@@H](CCCCN)C(=O)N[C@@H]([C@@H](C)O)C(=O)N1)C(=O)O [Octreotate, D-Phe-Cys'-Tyr-D-Trp-Lys-Thr-Cys'-Thr]
targeting of somatostatin (SST-2) receptors [6]: known to target somatostatin (SST-2) receptors
